Laboratory results taken from patent US20040003429A1, “Pest control system” (priority 2000, published 2004).
Where two headings read alike, the source gives them in different places.

Key:
[1] = tested on: Ceratitis capitata (strain Benakeion); assay: survival of flies after insecticide treatment (FIG. 1); type: in vivo; conditions: 16 h after insecticide-treatment
[2] = tested on: Drosophila melanogaster (strain OR/R); assay: as above; type: in vivo; conditions: 16 h after insecticide-treatment
[3] = tested on: tobacco budworm Heliothis virescens; conditions: cited from earlier work
[4] = tested on: acetylcholinesterase (AchE); conditions: cited from earlier work
[5] = tested on: adult boll weevil Anthonomus granids Boheman; conditions: cited from earlier work
[6] = tested on: nicotinergic acetylcholine receptor (nAcR); conditions: relative to imidacloprid; cited from earlier work
[7] = tested on: mixed function oxidase system; conditions: in vitro mixed function oxidase system; cited from earlier work
housefly = conditions: relative to imidacloprid; cited from earlier work

Row | Structure (SMILES) | activity compared to Methamidophos [1] | sensitivity of flies ((%) survival) [1] | activity compared to Methamidophos [2] | sensitivity of flies ((%) survival) [2] | activity in the tobacco budworm ([3]; acephate compared with methamidophos) | methamidophos observed in budworm larvae ([3]; within 2 hours of a topical acephate application) | AchE inhibition [4] | fold more toxic than acephate [5] | activity in the tobacco budworm ([3]; in vivo) | decrease of binding affinity to nAcR [6] | conversion to imidacloprid [7] | potency in the housefly (housefly)
1 | COP(=O)(NC(C)=O)SC (stereo not drawn) [Acephate, O, S dimethyl acetylphosphoramidothicate] | less active | sensitive | less active | sensitive | comparable activity | small amount of methamidophos | not an AchE inhibitor | – | – | – | – | –
2 | COP(N)(=O)SC (stereo not drawn) [Methamidophos, O, S-dimethyl phosphoramidothicate] | – | sensitive | – | sensitive | – | – | potent acetylcholinesterase (AchE) inhibitor | 75 fold | comparable activity | – | – | –
3 | CN1CCN(Cc2ccc(Cl)nc2)C1=N[N+](=O)[O-] [N-Me-imidacloprid] | – | – | – | – | – | – | – | – | – | 100 fold | can be converted to imidacloprid | as potent as imidacloprid
